# Calls of active or inactive are those of the source. No cut-off for these calls is given here.
# Tests used:
# ClpP1P2 [1] = molecular target: T1, ClpP1P2 (Mycobacterium tuberculosis (strain ATCC 25618 / H37Rv), UniProt P9WPC3+P9WPC5); assay: Inhibition of N-terminal His6-SUMO-tagged Mtb ClpP1 (7 to 200 residues)/ClpP2 (13 to 214 residues) complex expressed in Escherichia coli BL21(DE3) using Z-Gly-Gly-Leu-AMC as substrate measured for 60 mins in presence of Bz-LL by fluorescence based assay
# ClpP1P2 [2] = molecular target: T1, ClpP1P2; assay: Inhibition of N-terminal His6-SUMO-tagged Mtb ClpP1 (7 to 200 residues)/ClpP2 (13 to 214 residues) complex expressed in Escherichia coli BL21(DE3) using FITC-casein as substrate measured for 1 hr in presence of Bz-LL/ATP by fluorescence based assay
# [3] = test system: Mycobacterium tuberculosis; assay: Antibacterial activity against Mycobacterium tuberculosis H37Ra assessed as bacterial growth inhibition incubated for 24 hrs by broth microdilution method; assay type: functional
# [4] = molecular target: T2, ClpP1P2 (Mycobacterium tuberculosis (strain ATCC 25618 / H37Rv)) (UniProt P9WPC5+P9WPC3); assay: Binding affinity to ClpP1 in Mtb H37Ra lysate at 5 mM incubated for 4 hrs by affinity based capture method; assay type: subcellular
# [5] = molecular target: ATP-dependent Clp protease ATP-binding subunit ClpC1 (Mycobacterium tuberculosis) (UniProt P9WPC9); assay: Inhibition of N-terminal His6-tagged full-length Mtb ClpC1 creatine kinase activity expressed in Escherichia coli BL21(DE3) using creatine phosphate as substrate at 100 uM preincubated for 10 mins followed by substrate addition measured after 10 mins in presence of ADP by Kinase-Glo assay; conditions: time 20.0 min
# ATP-dependent Clp protease ATP-binding subunit ClpC1 (Mycobacterium tuberculosis), sequence (P9WPC9 whole entry, the tested form may be a part): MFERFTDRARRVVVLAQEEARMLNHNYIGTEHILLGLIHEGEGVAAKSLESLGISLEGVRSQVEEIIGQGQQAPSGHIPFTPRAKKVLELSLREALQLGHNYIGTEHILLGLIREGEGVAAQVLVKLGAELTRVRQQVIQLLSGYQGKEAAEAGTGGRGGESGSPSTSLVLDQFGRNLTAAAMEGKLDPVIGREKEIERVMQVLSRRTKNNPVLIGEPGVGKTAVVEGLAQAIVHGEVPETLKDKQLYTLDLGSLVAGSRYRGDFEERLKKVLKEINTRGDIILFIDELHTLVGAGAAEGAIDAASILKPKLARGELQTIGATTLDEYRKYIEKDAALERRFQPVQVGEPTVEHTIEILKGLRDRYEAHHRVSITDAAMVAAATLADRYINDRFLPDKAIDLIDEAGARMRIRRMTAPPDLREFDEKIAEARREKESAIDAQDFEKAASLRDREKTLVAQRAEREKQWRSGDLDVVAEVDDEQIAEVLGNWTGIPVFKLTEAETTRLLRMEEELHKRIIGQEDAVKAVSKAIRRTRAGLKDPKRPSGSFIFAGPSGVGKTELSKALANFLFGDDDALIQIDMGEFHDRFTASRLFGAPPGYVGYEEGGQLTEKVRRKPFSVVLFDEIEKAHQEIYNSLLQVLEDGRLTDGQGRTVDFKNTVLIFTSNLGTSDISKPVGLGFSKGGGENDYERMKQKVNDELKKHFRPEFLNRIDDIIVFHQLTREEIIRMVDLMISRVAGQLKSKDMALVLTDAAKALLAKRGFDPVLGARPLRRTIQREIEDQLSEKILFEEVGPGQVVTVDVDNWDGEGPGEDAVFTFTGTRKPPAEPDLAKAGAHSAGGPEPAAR
# [6] = molecular target: ATP-dependent Clp protease ATP-binding subunit ClpC1 (Mycobacterium tuberculosis) (UniProt P9WPC9); assay: Inhibition of N-terminal His6-tagged full-length Mtb ClpC1 ATPase activity expressed in Escherichia coli BL21(DE3) at 100 uM in presence of PK/LDH/ATP/NADH by spectrophotometry
# [7] = molecular target: T2, ClpP1P2 (Mycobacterium tuberculosis (strain ATCC 25618 / H37Rv)); assay: Inhibition of N-terminal His6-SUMO-tagged Mtb ClpP1 (7 to 200 residues)/ClpP2 (13 to 214 residues) complex expressed in Escherichia coli BL21(DE3) using Z-Gly-Gly-Leu-AMC as substrate at 10 uM incubated for 40 mins in presence of Bz-LL by fluorescence based assay
# [8] = Selectivity index, ratio of IC50 for Mtb H37Rv ClpP complex using Z-Gly-Gly-Leu-AMC as substrate to IC50 for N-terminal His6-SUMO-tagged Mtb ClpP1 (7 to 200 residues)/ClpP2 (13 to 214 residues) complex expressed in Escherichia coli BL21(DE3)
# [9] = Inhibition of N-terminal His6-SUMO-tagged Mycobacterium smegmatis ClpP1 (3 to 200 residues)/P2 (17 to 218 residues) expressed in Escherichia coli BL21(DE3)/C1 using Z-Gly-Gly-Leu-AM as substrate measured for 60 mins in presence of Bz-LL by fluorescence based assay; parameters: species or system Mycolicibacterium smegmatis
# [10] = Selectivity index, ratio of IC50 for full-length Staphylococcus aureus ClpP complex expressed in Escherichia coli BL21(DE3) using Suc-LY-AMC as substrate to IC50 for N-terminal His6-SUMO-tagged Mtb ClpP1 (7 to 200 residues)/ClpP2 (13 to 214 residues) complex expressed in Escherichia coli BL21(DE3)
# ClpP1P2 [11] = molecular target: T1, ClpP1P2; assay: Binding affinity to N-terminal His6-SUMO-tagged Mtb ClpP1 (7 to 200 residues)/ClpP2 (13 to 214 residues) complex expressed in Escherichia coli BL21(DE3) assessed as increase in thermal stability measured at 25 to 110 degreeC in presence of Bz-LL by DSF assay
# [12] = test system: Mycolicibacterium smegmatis; assay: Antibacterial activity against Mycobacterium smegmatis mc2 155 harboring ClpC1 knockout assessed as bacterial growth inhibition incubated for 2 days by Alamar blue staining based assay; assay type: functional; conditions: mc2 155, 48 h, time 2 day
# [13] = Inhibition of full-length human ClpP complex ([…]) expressed in Escherichia coli BL21(DE3) using Ac-WLA-AMC as substrate measured for 60 mins in presence of Bz-LL by fluorescence based assay
# [14] = (§1) Selectivity index, ratio of IC50 for full-length human ClpP complex ([…]) expressed in Escherichia coli BL21(DE3) using FITC-casein as substrate to IC50 for N-terminal His6-SUMO-tagged Mtb ClpP1 (7 to 200 residues)/ClpP2 (13 to 214 residues) complex expressed in Escherichia coli BL21(DE3)
# Staphylococcus aureus = assay: Antibacterial activity against Staphylococcus aureus assessed as bacterial growth inhibition incubated for 24 hrs by broth microdilution method; assay type: functional
# [15] = molecular target: T2, ClpP1P2 (Mycobacterium tuberculosis (strain ATCC 25618 / H37Rv)); assay: Inhibition of wild-type Mtb ClpP1 expressed in Escherichia coli BL21(DE3)
# [16] = Inhibition of full-length Mtb H37Rv ClpP complex expressed in Escherichia coli BL21(DE3) using FITC-casein as substrate measured for 1 hr in presence of Bz-LL/ATP by fluorescence based assay; parameters: species or system Mycobacterium tuberculosis
# [17] = Inhibition of full-length Staphylococcus aureus ClpP complex/Escherichia coli ClpX delta N mutant (62 to 425 residues) expressed in Escherichia coli BL21(DE3) using FITC-casein as substrate measured for 1 hr in presence of Bz-LL/ATP by fluorescence based assay
# [18] = Selectivity index, ratio of IC50 for full-length Pseudomonas aeruginosa ClpP1 expressed in Escherichia coli BL21(DE3) using Suc-LY-AMC as substrate to IC50 for N-terminal His6-SUMO-tagged Mtb ClpP1 (7 to 200 residues)/ClpP2 (13 to 214 residues) complex expressed in Escherichia coli BL21(DE3)
# [19] = test system: Mycolicibacterium smegmatis; assay: Antibacterial activity against Mycobacterium smegmatis mc2 155 harboring ClpX knockout assessed as bacterial growth inhibition incubated for 2 days by Alamar blue staining based assay; assay type: functional; conditions: mc2 155, 48 h, time 2 day
# [20] = Inhibition of full-length human ClpP complex ([…]) expressed in Escherichia coli BL21(DE3) using FITC-casein as substrate measured for 1 hr in presence of Bz-LL/ONC212/ATP by fluorescence based assay
# Escherichia coli = assay: Antibacterial activity against Escherichia coli assessed as bacterial growth inhibition incubated for 24 hrs by broth microdilution method; assay type: functional
# [21] = Selectivity index, ratio of IC50 for full-length Escherichia coli ClpP complex expressed in Escherichia coli BL21(DE3) using Suc-LY-AMC as substrate to IC50 for N-terminal His6-SUMO-tagged Mtb ClpP1 (7 to 200 residues)/ClpP2 (13 to 214 residues) complex expressed in Escherichia coli BL21(DE3)
# [22] = Inhibition of full-length Escherichia coli ClpP complex expressed in Escherichia coli BL21(DE3) using Suc-LY-AMC as substrate incubated for 60 mins in presence of Bz-LL by fluorescence based assay
# [23] = Selectivity index, ratio of IC50 for full-length Mtb H37Rv ClpP complex expressed in Escherichia coli BL21(DE3) using FITC-casein as substrate to IC50 for N-terminal His6-SUMO-tagged Mtb ClpP1 (7 to 200 residues)/ClpP2 (13 to 214 residues) complex expressed in Escherichia coli BL21(DE3)
# [24] = Inhibition of full-length Escherichia coli ClpP complex/Escherichia coli ClpX delta N mutant (62 to 425 residues) expressed in Escherichia coli BL21(DE3) using FITC-casein as substrate measured for 1 hr in presence of Bz-LL/ATP by fluorescence based assay
# [25] = Inhibition of full-length Staphylococcus aureus ClpP complex expressed in Escherichia coli BL21(DE3) using Suc-LY-AMC as substrate measured for 60 mins in presence of Bz-LL by fluorescence based assay
# [26] = Inhibition of full-length Pseudomonas aeruginosa ClpP1 expressed in Escherichia coli BL21(DE3) using Suc-LY-AMC as substrate measured for 60 mins in presence of Bz-LL by fluorescence based assay
# [27] = as §1, with “Ac-WLA-AMC” for “FITC-casein”
# [28] = test system: Mycolicibacterium smegmatis; assay: Antibacterial activity against wild-type Mycobacterium smegmatis mc2 155 assessed as bacterial growth inhibition incubated for 2 days by Alamar blue staining based assay; assay type: functional; conditions: mc2 155, 48 h, time 2 day
# Pseudomonas aeruginosa = assay: Antibacterial activity against Pseudomonas aeruginosa assessed as bacterial growth inhibition incubated for 24 hrs by broth microdilution method; assay type: functional
# [29] = test system: Mycobacterium tuberculosis; assay: Antibacterial activity against Mycobacterium tuberculosis H37Rv assessed as bacterial growth inhibition incubated for 24 hrs by broth microdilution method; assay type: functional
# [30] = Inhibition of N-terminal His6-SUMO-tagged Mycobacterium smegmatis ClpP1 (3 to 200 residues)/P2 (17 to 218 residues) expressed in Escherichia coli BL21(DE3) using Z-Gly-Gly-Leu-AM as substrate measured for 60 mins in presence of Bz-LL by fluorescence based assay; parameters: species or system Mycolicibacterium smegmatis
# T1 sequence (P9WPC5 whole entry, the tested form may be a part): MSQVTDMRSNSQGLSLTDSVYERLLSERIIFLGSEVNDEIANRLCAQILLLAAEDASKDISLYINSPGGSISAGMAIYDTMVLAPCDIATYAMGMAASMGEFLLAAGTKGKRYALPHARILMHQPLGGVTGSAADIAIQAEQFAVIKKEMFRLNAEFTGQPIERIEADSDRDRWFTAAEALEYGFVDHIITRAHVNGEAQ
# T1 sequence (P9WPC3 whole entry, the tested form may be a part): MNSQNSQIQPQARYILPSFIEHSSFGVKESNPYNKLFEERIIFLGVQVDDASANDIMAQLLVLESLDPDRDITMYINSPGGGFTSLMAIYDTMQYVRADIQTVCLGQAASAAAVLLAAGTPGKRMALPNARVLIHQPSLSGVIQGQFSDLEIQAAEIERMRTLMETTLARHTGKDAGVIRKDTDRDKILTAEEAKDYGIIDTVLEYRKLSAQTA
smiles,measurement,setting,value
COc1cc2c(Oc3ccc4[nH]c(C)cc4c3F)ncnc2cc1O,IC50,ClpP1P2 [1],45.3 µM
same,IC50,ClpP1P2 [2],> 100 µM
same,MIC,[3],> 118 µM
COc1cc2c(Nc3ccc4[nH]c(C)cc4c3F)ncnc2cc1OCCCN1CCCC1,IC50,ClpP1P2 [1],> 100 µM
same,IC50,ClpP1P2 [2],> 100 µM
same,MIC,[3],> 89 µM
COc1cc2c(Oc3ccc4cc[nH]c4c3)ncnc2cc1OCCCN1CCCC1,IC50,ClpP1P2 [1],> 100 µM
same,IC50,ClpP1P2 [2],> 100 µM
same,MIC,[3],> 95.6 µM
COc1cc2c(Oc3ccc4[nH]c(C)cc4c3F)ncnc2cc1OCCCN1CCC[C@@H](N)C1,IC50,ClpP1P2 [1],3.3 µM
same,IC50,ClpP1P2 [2],19.1 µM
same,MIC,[3],32 µM
same,Activity,[4],Active
COc1cc2c(OC)ncnc2cc1OCCCN1CCCC1,IC50,ClpP1P2 [1],> 100 µM
same,IC50,ClpP1P2 [2],> 100 µM
same,MIC,[3],> 126 µM
COc1cc(C(=O)Nc2ccc3[nH]c(C)cc3c2F)ccc1OCCCN1CCCC1,IC50,ClpP1P2 [1],26.8 µM
same,IC50,ClpP1P2 [2],> 100 µM
same,MIC,[3],> 94 µM
COc1cc2c(Oc3ccc4[nH]c(C)cc4c3F)ncnc2cc1OCCCCl,IC50,ClpP1P2 [1],49.2 µM
same,IC50,ClpP1P2 [2],> 100 µM
same,MIC,[3],> 96.2 µM
Cc1cc2c(F)c(Oc3ncnn4cc(OC[C@@H](C)O)c(C)c34)ccc2[nH]1 [BRIVANIB],IC50,ClpP1P2 [1],6.9 µM
same,inhibition,[5],inactive
same,inhibition,[6],inactive
same,inhibition,[7],Active
same,IC50,ClpP1P2 [2],24.2 µM
COc1cc2c(Oc3ccc4[nH]c(C)cc4c3F)ncnc2cc1OCCCN1CCCC1 [CEDIRANIB],Ratio IC50,[8],1
same,IC50,[9],43.9 µM
same,Ratio IC50,[10],> 170
same,IC50,ClpP1P2 [1],2.8 µM
same,inhibition,[5],inactive
same,EC50,ClpP1P2 [11],29 µM
same,MIC,[12],56.4 µg/mL
same,inhibition,[6],inactive
same,IC50,[13],37.5 µM
same,Ratio IC50,[14],11.3
same,MIC,Staphylococcus aureus,> 226 µM
same,inhibition,[15],inactive
same,inhibition,[7],Active
same,IC50,[16],24.2 µM
same,IC50,[17],234 µM
same,Ratio IC50,[18],> 170
same,MIC,[19],56.4 µg/mL
same,IC50,[20],273 µM
same,MIC,Escherichia coli,> 226 µM
same,Ratio IC50,[21],> 170
same,IC50,ClpP1P2 [2],45.1 µM
same,IC50,[22],> 500 µM
same,Ratio IC50,[23],14.8
same,IC50,[24],358 µM
same,IC50,[25],> 500 µM
same,IC50,[26],> 500 µM
same,Ratio IC50,[27],13.3
same,MIC,[28],113 µM
same,MIC,Pseudomonas aeruginosa,> 226 µM
same,MIC,[29],28.2 µM
same,MIC,[3],14.1 µM
same,IC50,[30],6.2 µM
Oc1c(Cl)cc(Cl)c(Cl)c1Cc1c(O)c(Cl)cc(Cl)c1Cl [HEXACHLOROPHENE],IC50,ClpP1P2 [1],4.9 µM
same,inhibition,[7],Active
CC(=O)NC[C@H]1CN(c2ccc(N3CCOCC3)c(F)c2)C(=O)O1 [LINEZOLID],MIC,Staphylococcus aureus,5.9 µM
same,MIC,Escherichia coli,> 379 µM
same,MIC,[28],5.9 µM
same,MIC,Pseudomonas aeruginosa,> 379 µM
same,MIC,[29],0.2 µM
same,MIC,[3],0.2 µM
CO[C@H]1/C=C/O[C@@]2(C)Oc3c(C)c(O)c4c(O)c(c(/C=N/N5CCN(C)CC5)c(O)c4c3C2=O)NC(=O)/C(C)=C\C=C\[C@H](C)[C@H](O)[C@@H](C)[C@@H](O)[C@@H](C)[C@H](OC(C)=O)[C@@H]1C [RIFAMPIN],MIC,Escherichia coli,4.9 µM
same,MIC,Pseudomonas aeruginosa,38.9 µM

# Reference: ChEMBL document CHEMBL5375995, “Discovery and Mechanistic Study of Novel Mycobacterium tuberculosis ClpP1P2 Inhibitors” (J Med Chem, 2023)
